Experimental data as given in ChEMBL document CHEMBL5465560, “Selectivity Literature for EUbOPEN Chemogenomic Library” (2024).
One block for each molecule: values may come before it.

Columns and labels:
[1] = target: Interferon-induced, double-stranded RNA-activated protein kinase (Homo sapiens) (UniProt P19525); assay: Selectivity interaction (ActivX KiNativ screen (kinase selectivity in THP-1 cell lysates)) EUB0000639a EIF2AK2; assay type: subcellular; settings: lysate, at 0.2 µM
[2] = target: T1, Serine/threonine-protein kinase haspin (Homo sapiens) (UniProt Q8TF76); assay: Selectivity interaction (Adapta Assay) EUB0001632a GSG2; settings: at 10 µM
T1 sequence (whole entry): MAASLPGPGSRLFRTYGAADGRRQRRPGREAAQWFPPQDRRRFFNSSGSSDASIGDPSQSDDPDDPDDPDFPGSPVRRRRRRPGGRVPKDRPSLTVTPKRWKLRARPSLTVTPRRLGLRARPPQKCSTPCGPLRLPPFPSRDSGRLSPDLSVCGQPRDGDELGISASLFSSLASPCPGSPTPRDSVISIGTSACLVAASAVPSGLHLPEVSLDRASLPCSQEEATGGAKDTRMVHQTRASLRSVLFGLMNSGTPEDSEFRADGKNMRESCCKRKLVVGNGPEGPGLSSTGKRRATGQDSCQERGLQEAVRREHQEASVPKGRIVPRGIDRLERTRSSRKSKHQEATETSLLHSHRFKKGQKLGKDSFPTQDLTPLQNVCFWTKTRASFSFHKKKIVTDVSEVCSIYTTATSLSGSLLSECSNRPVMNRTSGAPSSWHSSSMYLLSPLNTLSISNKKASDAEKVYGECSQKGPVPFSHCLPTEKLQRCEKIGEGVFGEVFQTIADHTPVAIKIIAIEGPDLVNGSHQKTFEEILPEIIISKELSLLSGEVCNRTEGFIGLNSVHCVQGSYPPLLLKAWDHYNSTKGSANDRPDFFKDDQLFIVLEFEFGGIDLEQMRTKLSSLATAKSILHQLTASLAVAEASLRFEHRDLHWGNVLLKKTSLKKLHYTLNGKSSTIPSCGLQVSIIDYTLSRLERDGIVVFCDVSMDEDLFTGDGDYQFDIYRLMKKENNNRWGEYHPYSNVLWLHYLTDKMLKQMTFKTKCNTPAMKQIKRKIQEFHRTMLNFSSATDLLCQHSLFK

[3] = target: Serine/threonine-protein kinase 33 (Homo sapiens) (UniProt Q9BYT3); assay: Selectivity interaction (KinomeScan (DiscoverX)) EUB0000695a STK33; settings: at 100 nM
[4] = target: Phosphatidylinositol 4-kinase beta (Homo sapiens, UniProt Q9UBF8); assay: Selectivity interaction (KinomeScan (DiscoverX)) EUB0000229b PI4KB; settings: at 10 µM
[5] = target: Serine/threonine-protein kinase 24 (Homo sapiens) (UniProt Q9Y6E0); assay: Selectivity interaction (Kinase panel (DSF assay)) EUB0001559a STK24
[6] = target: T2, Ephrin type-A receptor 1 (Homo sapiens) (UniProt P21709); assay: Selectivity interaction (KinomeScan (DiscoverX)) EUB0000607a EPHA1; settings: at 10 µM
T2 sequence (whole entry): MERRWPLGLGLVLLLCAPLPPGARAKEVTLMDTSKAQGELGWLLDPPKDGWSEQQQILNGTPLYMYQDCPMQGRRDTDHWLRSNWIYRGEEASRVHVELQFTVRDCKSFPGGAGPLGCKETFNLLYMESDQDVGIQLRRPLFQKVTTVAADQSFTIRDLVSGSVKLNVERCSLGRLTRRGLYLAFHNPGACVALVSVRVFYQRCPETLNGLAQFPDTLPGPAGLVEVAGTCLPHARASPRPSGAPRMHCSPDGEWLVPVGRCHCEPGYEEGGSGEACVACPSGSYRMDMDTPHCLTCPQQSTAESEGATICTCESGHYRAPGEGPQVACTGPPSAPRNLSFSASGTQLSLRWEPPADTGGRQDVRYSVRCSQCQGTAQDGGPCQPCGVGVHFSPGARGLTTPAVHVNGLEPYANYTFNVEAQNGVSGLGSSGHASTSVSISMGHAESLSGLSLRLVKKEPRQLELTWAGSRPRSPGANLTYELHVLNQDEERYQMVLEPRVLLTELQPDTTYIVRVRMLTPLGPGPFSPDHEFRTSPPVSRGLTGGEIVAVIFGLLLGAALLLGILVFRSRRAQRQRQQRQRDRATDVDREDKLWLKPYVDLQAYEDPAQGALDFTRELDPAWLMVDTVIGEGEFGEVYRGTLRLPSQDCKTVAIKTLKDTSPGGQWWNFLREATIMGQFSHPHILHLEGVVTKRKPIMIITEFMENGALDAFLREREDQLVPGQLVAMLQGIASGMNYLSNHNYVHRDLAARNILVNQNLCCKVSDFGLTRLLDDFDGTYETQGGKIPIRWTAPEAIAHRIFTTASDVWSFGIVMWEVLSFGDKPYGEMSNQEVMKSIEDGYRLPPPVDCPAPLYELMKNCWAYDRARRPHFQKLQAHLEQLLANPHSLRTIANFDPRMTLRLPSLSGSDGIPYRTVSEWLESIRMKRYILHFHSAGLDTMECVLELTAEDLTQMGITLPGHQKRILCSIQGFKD

[7] = target: Protein-tyrosine kinase 6 (Homo sapiens, UniProt Q13882); assay: Selectivity interaction (KinomeScan (DiscoverX)) EUB0000607a PTK6; settings: at 10 µM
[8] = target: T3, Tyrosine-protein kinase Tec (Homo sapiens) (UniProt P42680); assay: Selectivity interaction (KinomeScan (DiscoverX)) EUB0000666a TEC; settings: at 10 µM
T3 sequence (whole entry): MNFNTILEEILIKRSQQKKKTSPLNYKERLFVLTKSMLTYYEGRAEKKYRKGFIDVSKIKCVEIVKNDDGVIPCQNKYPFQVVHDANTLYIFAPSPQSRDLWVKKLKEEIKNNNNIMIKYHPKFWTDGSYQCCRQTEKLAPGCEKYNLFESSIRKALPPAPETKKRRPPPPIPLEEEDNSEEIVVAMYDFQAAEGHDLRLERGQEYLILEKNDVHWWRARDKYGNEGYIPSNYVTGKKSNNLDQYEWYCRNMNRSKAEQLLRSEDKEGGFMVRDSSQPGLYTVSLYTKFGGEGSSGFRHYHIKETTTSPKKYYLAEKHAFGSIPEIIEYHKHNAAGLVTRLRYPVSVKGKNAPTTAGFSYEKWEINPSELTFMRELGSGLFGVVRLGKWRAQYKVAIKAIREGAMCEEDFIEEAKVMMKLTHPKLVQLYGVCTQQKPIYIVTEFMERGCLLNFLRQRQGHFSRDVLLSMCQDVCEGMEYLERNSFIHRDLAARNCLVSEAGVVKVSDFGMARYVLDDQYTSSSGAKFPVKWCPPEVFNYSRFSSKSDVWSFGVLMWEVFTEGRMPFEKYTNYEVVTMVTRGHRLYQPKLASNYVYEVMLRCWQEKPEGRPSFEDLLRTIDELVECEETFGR

Serine/threonine-protein kinase 24 (Homo sapiens), sequence (Q9Y6E0 whole entry, looked up): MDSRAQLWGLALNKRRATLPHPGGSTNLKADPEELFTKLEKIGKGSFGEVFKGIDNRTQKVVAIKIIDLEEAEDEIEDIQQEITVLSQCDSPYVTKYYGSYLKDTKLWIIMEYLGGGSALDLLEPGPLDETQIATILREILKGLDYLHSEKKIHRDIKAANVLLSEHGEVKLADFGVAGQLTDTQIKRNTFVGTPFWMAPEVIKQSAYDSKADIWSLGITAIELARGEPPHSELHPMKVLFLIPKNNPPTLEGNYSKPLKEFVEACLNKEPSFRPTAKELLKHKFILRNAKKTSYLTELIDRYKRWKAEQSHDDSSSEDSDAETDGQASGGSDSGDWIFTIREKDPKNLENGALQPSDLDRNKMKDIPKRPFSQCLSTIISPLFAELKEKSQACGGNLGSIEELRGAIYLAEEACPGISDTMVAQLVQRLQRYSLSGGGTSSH
Interferon-induced, double-stranded RNA-activated protein kinase (Homo sapiens), sequence (P19525 whole entry): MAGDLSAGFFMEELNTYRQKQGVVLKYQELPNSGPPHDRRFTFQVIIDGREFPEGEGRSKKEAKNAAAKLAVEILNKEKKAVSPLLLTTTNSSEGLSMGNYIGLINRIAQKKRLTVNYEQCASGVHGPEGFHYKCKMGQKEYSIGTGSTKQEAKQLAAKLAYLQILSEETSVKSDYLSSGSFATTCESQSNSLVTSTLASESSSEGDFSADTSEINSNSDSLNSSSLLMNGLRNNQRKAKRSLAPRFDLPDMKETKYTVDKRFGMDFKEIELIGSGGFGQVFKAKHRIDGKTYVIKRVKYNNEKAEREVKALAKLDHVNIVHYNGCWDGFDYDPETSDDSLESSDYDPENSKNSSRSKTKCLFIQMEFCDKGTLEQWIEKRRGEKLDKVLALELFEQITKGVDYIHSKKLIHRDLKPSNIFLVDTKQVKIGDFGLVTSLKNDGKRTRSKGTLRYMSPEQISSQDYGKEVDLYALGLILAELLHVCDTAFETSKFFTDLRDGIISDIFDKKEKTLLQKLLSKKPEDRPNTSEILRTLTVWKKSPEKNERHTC
Serine/threonine-protein kinase 33 (Homo sapiens), sequence (Q9BYT3 whole entry, looked up): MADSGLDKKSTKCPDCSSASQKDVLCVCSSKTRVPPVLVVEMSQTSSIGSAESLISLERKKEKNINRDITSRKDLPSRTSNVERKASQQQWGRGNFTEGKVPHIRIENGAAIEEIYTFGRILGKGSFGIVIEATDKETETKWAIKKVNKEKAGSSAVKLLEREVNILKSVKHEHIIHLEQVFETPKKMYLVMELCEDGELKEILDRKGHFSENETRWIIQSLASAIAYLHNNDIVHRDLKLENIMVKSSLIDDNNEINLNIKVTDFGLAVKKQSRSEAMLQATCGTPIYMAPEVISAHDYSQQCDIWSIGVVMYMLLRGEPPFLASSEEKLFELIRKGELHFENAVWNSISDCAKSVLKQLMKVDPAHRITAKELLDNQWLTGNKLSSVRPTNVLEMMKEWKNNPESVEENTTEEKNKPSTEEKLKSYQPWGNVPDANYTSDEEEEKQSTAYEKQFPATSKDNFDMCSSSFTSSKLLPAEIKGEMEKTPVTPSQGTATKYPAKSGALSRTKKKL
Protein-tyrosine kinase 6, sequence (Q13882 whole entry, looked up): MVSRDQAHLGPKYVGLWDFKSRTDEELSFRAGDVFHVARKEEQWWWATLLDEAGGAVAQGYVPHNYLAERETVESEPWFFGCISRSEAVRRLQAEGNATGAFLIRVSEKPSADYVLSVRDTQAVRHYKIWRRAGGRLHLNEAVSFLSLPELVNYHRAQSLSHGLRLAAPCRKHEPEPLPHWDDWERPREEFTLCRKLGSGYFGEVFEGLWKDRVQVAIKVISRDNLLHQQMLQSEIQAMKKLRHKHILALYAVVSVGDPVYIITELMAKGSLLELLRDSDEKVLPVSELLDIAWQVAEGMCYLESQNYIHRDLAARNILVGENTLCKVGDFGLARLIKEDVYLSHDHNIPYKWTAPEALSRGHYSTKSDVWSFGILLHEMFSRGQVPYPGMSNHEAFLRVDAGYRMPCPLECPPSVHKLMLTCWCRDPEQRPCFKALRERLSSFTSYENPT
Phosphatidylinositol 4-kinase beta, sequence (Q9UBF8 2-816 limits assumed): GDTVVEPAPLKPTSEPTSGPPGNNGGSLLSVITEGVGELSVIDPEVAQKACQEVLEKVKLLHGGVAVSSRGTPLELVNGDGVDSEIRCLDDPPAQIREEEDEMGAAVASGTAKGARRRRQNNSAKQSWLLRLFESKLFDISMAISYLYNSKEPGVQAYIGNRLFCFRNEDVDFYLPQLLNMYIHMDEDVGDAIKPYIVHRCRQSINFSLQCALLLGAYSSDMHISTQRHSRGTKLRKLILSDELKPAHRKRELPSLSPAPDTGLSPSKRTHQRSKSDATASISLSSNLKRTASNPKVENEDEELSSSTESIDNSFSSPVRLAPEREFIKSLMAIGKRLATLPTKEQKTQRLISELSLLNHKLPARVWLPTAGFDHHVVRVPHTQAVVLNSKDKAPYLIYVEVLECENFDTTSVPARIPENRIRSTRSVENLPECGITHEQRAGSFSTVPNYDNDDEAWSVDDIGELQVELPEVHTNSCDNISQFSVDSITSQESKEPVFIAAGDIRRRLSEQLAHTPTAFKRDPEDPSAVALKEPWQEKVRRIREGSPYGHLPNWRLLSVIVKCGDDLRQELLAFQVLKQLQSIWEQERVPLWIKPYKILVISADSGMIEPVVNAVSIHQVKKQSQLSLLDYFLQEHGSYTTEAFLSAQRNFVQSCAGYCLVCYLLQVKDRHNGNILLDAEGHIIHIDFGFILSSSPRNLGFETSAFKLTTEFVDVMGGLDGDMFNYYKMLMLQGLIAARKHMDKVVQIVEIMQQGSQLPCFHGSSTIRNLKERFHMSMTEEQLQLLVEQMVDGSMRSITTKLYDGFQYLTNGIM

% of inhibition [1]: -4.9%
SMILES: CC[C@@H]1[C@H](F)C(=O)N[C@@H]1COc1nccc2cc(C(N)=O)c(OC)cc12 [ZIMLOVISERTIB]

% of inhibition [2]: 45%
SMILES: Cn1cc(-n2cnc3c(NCc4nc5cc(Cl)c(Cl)cc5[nH]4)nc(N4CCOCC4)nc32)cn1

SMILES: Cc1cc(F)c(C(=O)Nc2cccc(-c3nncn3C(C)C)n2)cc1-n1cnc(C2CC2)c1
% of control [3]: 78%

SMILES: COc1cc(N(C)c2ccnc3ccc(C(F)(F)F)cc23)cc(OC)c1OC
% binding [4]: 90%

dTM [5]: -0.3 K
SMILES: CN(C(=O)c1cnn2cccnc12)c1cc2c(cc1N1CCOCC1)C(=O)N(C[C@@H](F)C(C)(C)O)C2

SMILES: CNC(=O)Nc1ccc(-c2nc(N3CC4CCC(C3)O4)c3cnn(C4CCC5(CC4)OCCO5)c3n2)cc1
% of control [6]: 81% | % of control [7]: 55%

SMILES: O=C(NOC[C@H](O)CO)c1ccc(F)c(F)c1Nc1ccc(I)cc1F
% of control [8]: 100%
